Assay results as given in patent US20240166612A1, “ARYLTHIOETHER ACETAMIDE AND RELATED COMPOUNDS AND THEIR USE IN TREATING MEDICAL CONDITIONS” (X-Biotix Therapeutics, Inc., priority 2021, published 2024).
Converted amounts (≈) assume the structure as drawn.

Experiments:
Assay type in all cases: cell-based
[1] = system: P. aeruginosa PAO1 ΔmexABoprM; assay: Broth microdilution MIC, P. aeruginosa PAO1 ΔmexABoprM; conditions: Pseudomonas aeruginosa, PAO1, 18 h, read-out: PAO1 KO MIC
Experimental: (§1) Exemplary compounds from the above Examples were tested to determine their minimum inhibitory concentration (MIC) for exemplary strains of Escherichia and Pseudomonas bacteria using broth microdilution methods. Assay procedures and results are described below.
(§2) Broth microdilution assays were conducted according to Clinical and Laboratory Standards Institute guidelines (CLSI, M07-A^11: Clinical and Laboratory Standards Institute. Methods for Dilution Antimicrobial Susceptibility Tests for Bacteria that Grow Aerobically; Approved Standard-11th Edition. Wayne, PA: CLSI, 2018). Briefly, bacterial suspensions were adjusted to a density equivalent to a 0.5 McFarland standard and diluted in sterile, cation-adjusted Mueller-Hinton broth (Beckton Dickinson) to yield a final inoculum between 2×10^5 and 8×10^5 colony-forming units (CFU)/mL. An inoculum volume of 98 μL was added to wells containing 2 μL of 2-fold serial dilutions of drug (prepared in DMSO). All inoculated microdilution trays were incubated in ambient air at 37° C. for 18 h. […] Performance of the assay was monitored by the use of laboratory quality-control strains (S. aureus ATCC 29213 and P. aeruginosa ATCC 27853) and levofloxacin, a compound with a defined MIC spectrum, in accordance with CLSI guidelines (CLSI, M100Ed29: Clinical and Laboratory Standards Institute. Performance Standards for Antimicrobial Susceptibility Testing, 29th Edition. Wayne, PA: CLSI, 2018).
(§3) Multiple enterobacteriaceae strains were tested, including both wild-type strains and multi-drug resistance pump deficient mutants. Specific strains tested included the following: • Wild-type P. aeruginosa PAO1, • P. aeruginosa PAO1 ΔmexABoprM—Disabled multi-drug efflux system Δ(MexAB-OprM), • P. aeruginosa PAO397—PAO1Δ(mexAB-oprM) Δ(mexCD-oprJ) Δ(mexEF-oprN) Δ(mexJK) Δ(mexXY) ΔopmH, • P. aeruginosa LESB58—Clinical isolate; colistin-resistant, isolated in the United Kingdom in 1988 from a patient with cystic fibrosis • E. coli JW0452-3 (BW25113 JacrA::kan)—Disabled multi-drug efflux system (AcrAB-TolC).
(§4) Experimental results are provided in Table 11, which provides MIC values for wild-type P. aeruginosa PAO1 (“PAO1 WT MIC”), P. aeruginosa PAO ΔmexABoprM (“PAO1 KO MIC”), P. aeruginosa PAO397 (“PAO397 KO MIC”), P. aeruginosa LESB58 (“LESB58”), and E. coli JW0452-3 (BW25113 JacrA::kan) (“E. coli KO MIC”).

P. aeruginosa LESB58 = assay: Broth microdilution MIC, P. aeruginosa LESB58; conditions: Pseudomonas aeruginosa; P. aeruginosa LESB58 clinical isolate, colistin-resistant, 37° C., 18 h
Experimental: as §1, §2, §3, §4

[2] = system: Wild-type P. aeruginosa PAO1; assay: Broth microdilution MIC, wild-type P. aeruginosa PAO1; conditions: Pseudomonas aeruginosa; wild-type P. aeruginosa PAO1, 37° C., 18 h; read-out: PAO1 WT MIC
Experimental: as §1, §2, §3, §4

P. aeruginosa PAO397 = assay: Broth microdilution MIC, P. aeruginosa PAO397; conditions: Pseudomonas aeruginosa, PAO397, 18 h, read-out: PAO397 KO MIC
Experimental: as §1, §2, §3, §4

SMILES	MIC [1] [µg/mL]	MIC (P. aeruginosa LESB58) [µg/mL]	MIC [2] [µg/mL]	MIC (P. aeruginosa PAO397) [µg/mL]
N#Cc1ccc(CN(Cc2nnc(N)o2)C(=O)COc2cc(F)cc(F)c2Cl)c(F)c1 [Compound No. 31, N-[(5-Amino-1,3,4-oxadiazol-2-yl)methyl]-2-(2-chloro-3,5-difluoro-phenoxy)-N-[(4-cyano-2-fluoro-phenyl)methyl]acetamide]	1 to 16 (≈ 2.21 to 35.4 µM)	1 to 16 (≈ 2.21 to 35.4 µM)	> 64	< 1
N#Cc1ccc(CN(Cc2nnc(N)o2)C(=O)CSc2cc(CCO)ccc2Cl)c(F)c1 [Compound No. 63, N-[(5-Amino-1,3,4-oxadiazol-2-yl)methyl]-2-[2-chloro-5-(2-hydroxyethyl)phenyl]sulfanyl-N-[(4-cyano-2-fluoro-phenyl)methyl]acetamide]	1 to 16 (≈ 2.1 to 33.6 µM)	16 to 64 (≈ 33.6 to 134 µM)	> 64	< 1
CCc1c(F)cc(F)cc1OCC(=O)N(Cc1nnc(N)o1)Cc1ccc(C#N)cc1F [Compound No. 64, N-[(5-Amino-1,3,4-oxadiazol-2-yl)methyl]-N-[(4-cyano-2-fluoro-phenyl)methyl]-2-(2-ethyl-3,5-difluoro-phenoxy)acetamide]	< 1	1 to 16 (≈ 2.25 to 35.9 µM)	16 to 64 (≈ 35.9 to 144 µM)	< 1
N#Cc1ccc(CN(Cc2nnc(N)o2)C(=O)CSc2ccccc2Cl)c(F)c1 [compound 13]	1 to 16 (≈ 2.32 to 37 µM)	1 to 16 (≈ 2.32 to 37 µM)	16 to 64 (≈ 37 to 148 µM)	< 1
N#Cc1ccc(CN(Cc2nnc(N)o2)C(=O)CSc2ccccc2Cl)cn1 [compound 14]	1 to 16 (≈ 2.41 to 38.6 µM)	16 to 64 (≈ 38.6 to 154 µM)	> 64	< 1
N#Cc1ccc(CN(Cc2nnc(N)o2)C(=O)COc2cccc(Cl)c2)c(F)c1 [compound 20]	16 to 64 (≈ 38.5 to 154 µM)	> 64	> 64	1 to 16 (≈ 2.4 to 38.5 µM)
N#Cc1cc(F)c(CN(Cc2nnc(N)o2)C(=O)CSc2cccc(F)c2Cl)c(F)c1 [compound 25]	1 to 16 (≈ 2.14 to 34.2 µM)	1 to 16 (≈ 2.14 to 34.2 µM)	1 to 16 (≈ 2.14 to 34.2 µM)	< 1
N#Cc1cc(F)c(CN(Cc2nnc(N)o2)C(=O)CSc2cc(F)cc(F)c2Cl)c(F)c1 [compound 26]	< 1	1 to 16 (≈ 2.06 to 32.9 µM)	> 64	< 1
CCc1ccccc1OCC(=O)N(Cc1nnc(N)o1)Cc1ccc(C#N)cc1F [compound 37]	1 to 16 (≈ 2.44 to 39.1 µM)	16 to 64 (≈ 39.1 to 156 µM)	> 64	< 1
CCc1ccc(F)cc1OCC(=O)N(Cc1nnc(N)o1)Cc1ccc(C#N)cc1F [compound 38]	1 to 16 (≈ 2.34 to 37.4 µM)	16 to 64 (≈ 37.4 to 150 µM)	16 to 64 (≈ 37.4 to 150 µM)	< 1
N#Cc1ccc(CN(Cc2nnc(N)o2)C(=O)COc2ccccc2OC(F)(F)F)c(F)c1 [compound 39]	16 to 64 (≈ 34.4 to 138 µM)	> 64	> 64	1 to 16 (≈ 2.15 to 34.4 µM)
CCc1c(F)cccc1OCC(=O)N(Cc1nnc(N)o1)Cc1ccc(C#N)cc1F [compound 41]	< 1	1 to 16 (≈ 2.34 to 37.4 µM)	> 64	< 1
CCc1ccccc1SCC(=O)N(Cc1nnc(N)o1)Cc1ccc(C#N)cc1F [compound 42]	1 to 16 (≈ 2.35 to 37.6 µM)	1 to 16 (≈ 2.35 to 37.6 µM)	16 to 64 (≈ 37.6 to 150 µM)	< 1
N#Cc1ccc(CN(Cc2nnc(N)o2)C(=O)CSc2cccc(F)c2Cl)cc1 [compound 52]	1 to 16 (≈ 2.32 to 37 µM)	1 to 16 (≈ 2.32 to 37 µM)	> 64	< 1
N#Cc1ccc(CN(Cc2nnc(N)o2)C(=O)CSc2cc(F)cc(F)c2Cl)c(F)c1 [compound 55]	< 1	1 to 16 (≈ 2.14 to 34.2 µM)	1 to 16 (≈ 2.14 to 34.2 µM)	< 1
N#Cc1ccc(CN(Cc2nnc(N)o2)C(=O)CSc2ccccc2OC(F)(F)F)c(F)c1 [compound 56]	16 to 64 (≈ 33.2 to 133 µM)	> 64	> 64	< 1
